Laboratory results: patent publication US20120107333A1, “VANGL1 PEPTIDES AND VACCINES INCLUDING THE SAME” (Oncotherapy Science, Inc., priority 2009, published 2012)
Non-standard residues stand in square brackets, D forms with d. No end group written: not given here.

Tests used:
[1] = system: peptide-pulsed A24LCL cells; experiment: IFN-gamma ELISPOT assay on CTLs induced with VANGL1 peptides; type: cell-based, human; conditions: CTLs from HLA-A*2402 positive donor after 3rd peptide stimulation, day 21; compared to the control wells
Text: (§1) Monocyte-derived dendritic cells (DCs) were used as antigen-presenting cells (APCs) to induce cytotoxic T lymphocyte (CTL) responses against peptides presented on human leukocyte antigen (HLA). DCs were generated in vitro as described elsewhere (Nakahara S et al., Cancer Res 2003 Jul. 15, 63(14): 4112-8). Specifically, peripheral blood mononuclear cells (PBMCs) isolated from a normal volunteer (HLA-A*2402 positive) by Ficoll-Plaque (Pharmacia) solution were separated by adherence to a plastic tissue culture dish (Becton Dickinson) so as to enrich them as the monocyte fraction. The monocyte-enriched population was cultured in the presence of 1,000 U/ml of granulocyte-macrophage colony-stimulating factor (GM-CSF) (R&D System) and 1,000 U/ml of interleukin (IL)-4 (R&D System) in AIM-V Medium (Invitrogen) containing 2% heat-inactivated autologous serum (AS). After 7 days of culture, the cytokine-induced DCs were pulsed with 20 micro-g/ml of each of the synthesized peptides in the presence of 3 micro-g/ml of beta 2-microglobulin for 3 hrs at 37 degrees C. in AIM-V Medium. The generated cells appeared to express DC-associated molecules, such as CD80, CD83, CD86 and HLA class II, on their cell surfaces (data not shown). These peptide-pulsed DCs were then inactivated by X-irradiation (20 Gy) and mixed at a 1:20 ratio with autologous CD8+ T cells, obtained by positive selection with CD8 Positive Isolation Kit (Dynal). These cultures were set up in 48-well plates (Corning); each well contained 1.5×10^4 peptide-pulsed DCs, 3×10^5 CD8+ T cells and 10 ng/ml of IL-7 (R&D System) in 0.5 ml of AIM-V/2% AS medium. Three days later, these cultures were supplemented with IL-2 (CHIRON) to a final concentration of 20 IU/ml. On days 7 and 14, the T cells were further stimulated with the autologous peptide-pulsed DCs. The DCs were prepared each time by the same way described above. CTL was tested against peptide-pulsed A24LCL cells after the 3rd round of peptide stimulation on day 21 (Tanaka H et al., Br J Cancer 2001 Jan. 5, 84(1): 94-9; Umano Y et al., Br J Cancer 2001 Apr. 20, 84(8): 1052-7; Uchida N et al., Clin Cancer Res 2004 Dec. 15, 10(24): 8577-86; Suda T et al., Cancer Sci 2006 May, 97(5): 411-9; Watanabe T et al., Cancer Sci 2005 August, 96(8): 498-506).
(§2) To examine specific CTL activity, interferon (IFN)-gamma enzyme-linked immunospot (ELISPOT) assay and IFN-gamma enzyme-linked immunosorbent assay (ELISA) were performed. Specifically, peptide-pulsed A24LCL (1×10^4/well) was prepared as stimulator cells. Cultured cells in 48 wells were used as responder cells. IFN-gamma ELISPOT assay and IFN-gamma ELISA assay were performed under manufacture procedure.

[2] = system: peptide-pulsed A24LCL cells; experiment: IFN-gamma ELISA assay of established CTL lines; type: cell-based, human; conditions: target cells pulsed with corresponding peptide vs target cells without peptide pulse
Text: as §1
CTLs were expanded in culture using the method similar to the one described by Riddell et al. (Walter E A et al., N Engl J Med 1995 Oct. 19, 333(16): 1038-44; Riddell S R et al., Nat Med 1996 February, 2(2): 216-23). A total of 5×10^4 CTLs were suspended in 25 ml of AIM-V/5% AS medium with 2 kinds of human B-lymphoblastoid cell lines, inactivated by Mitomycin C, in the presence of 40 ng/ml of anti-CD3 monoclonal antibody (Pharmingen). One day after initiating the cultures, 120 IU/ml of IL-2 were added to the cultures. The cultures were fed with fresh AIM-V/5% AS medium containing 30 IU/ml of IL-2 on days 5, 8 and 11 (Tanaka H et al., Br J Cancer 2001 Jan. 5, 84(1): 94-9; Umano Y et al., Br J Cancer 2001 Apr. 20, 84(8): 1052-7; Uchida N et al., Clin Cancer Res 2004 Dec. 15, 10(24): 8577-86; Suda T et al., Cancer Sci 2006 May, 97(5): 411-9; Watanabe T et al., Cancer Sci 2005 August, 96(8): 498-506).
as §2

[3] = system: target cells pulsed peptide; experiment: IFN-gamma ELISA assay of CTL clones established by limiting dilution; type: cell-based, human; conditions: CTL clones against target cells pulsed peptide
Procedure: The dilutions were made to have 0.3, 1, and 3 CTLs/well in 96 round-bottomed micro titer plate (Nalge Nunc International). CTLs were cultured with 1×10^4 cells/well of 2 kinds of human B-lymphoblastoid cell lines, 30 ng/ml of anti-CD3 antibody, and 125 U/ml of IL-2 in a total of […] of AIM-V Medium containing 5% AS. 50 micro-Dwell of IL-2 were added to the medium 10 days later so to reach a final concentration of 125 U/ml IL-2. CTL activity was tested on the 14th day, and CTL clones were expanded using the same method as described above (Uchida N et al., Clin Cancer Res 2004 Dec. 15, 10(24): 8577-86; Suda T et al., Cancer Sci 2006 May, 97(5): 411-9; Watanabe T et al., Cancer Sci 2005 August, 96(8): 498-506).
as §2

[4] = system: COS7 cells transfected with VANGL1 and HLA-A*2402; experiment: Specific CTL activity against target cells exogenously expressing VANGL1 and HLA-A*2402; type: cell-based, African green monkey
Text: The cDNA encoding an open reading frame of target genes or HLA-A*2402 was amplified by PCR. The PCR-amplified product was cloned into pCAGGS vector. The plasmids were transfected into COS7, which is the target genes and HLA-A24-negative cell line, using lipofectamine 2000 (Invitrogen) according to the manufacturer's recommended procedures. After 2 days from transfection, the transfected cells were harvested with versene (Invitrogen) and used as the target cells (5×10^4 cells/well) for CTL activity assay.
The established CTL lines raised against these peptides were examined for their ability to recognize target cells that endogenously express VANGL1 and HLA-A*2402 molecule. Specific CTL activity against COS7 cells which transfected with both the full length of VANGL1 and HLA-A*2402 molecule gene (a specific model for the target cells that exogenously express VANGL1 and HLA-A*2402 gene) was tested using the CTL lines raised by corresponding peptide as the effecter cells. COS7 cells transfected with either full length of VANGL1 genes or HLA-A* 2402 were prepared as controls.

Row | Substance | Peptide specific CTL activity: IFN-gamma production (ELISPOT) [1] | CTL activity of CTL lines: IFN-gamma production (ELISA) [2] | IFN-gamma production from CTL clones (ELISA) [3] | Specific CTL activity ([4]; COS7 cells expressing both VANGL1 and HLA-A*2402) | Specific CTL activity ([4]; controls: COS7 cells transfected with either full length VANGL1 or HLA-A*2402)
1 | DFTIyNPNLL (DFTI[code y]NPNLL) [SEQ ID NO: 26] | potent IFN-gamma production |  |  |  | 
2 | HYLAiVLLEL (HYLA[code i]VLLEL) [SEQ ID NO: 18] | potent IFN-gamma production | potent IFN-gamma production | Potent IFN-gamma productions |  | 
3 | LFIHyLAIVL (LFIH[code y]LAIVL) [SEQ ID NO: 24] | potent IFN-gamma production | potent IFN-gamma production | Potent IFN-gamma productions |  | 
4 | LFISmAFKLL (LFIS[code m]AFKLL) [SEQ ID NO: 25] | potent IFN-gamma production | potent IFN-gamma production |  |  | 
5 | LFVVSYWLF [SEQ ID NO: 12] | potent IFN-gamma production | potent IFN-gamma production |  |  | 
6 | NYQGiVQYAV (NYQG[code i]VQYAV) [SEQ ID NO: 32] | potent IFN-gamma production | potent IFN-gamma production |  |  | 
7 | RYLGLTVAS [SEQ ID NO: 11] | potent IFN-gamma production | potent IFN-gamma production |  |  | 
8 | RYLSAGPTL [SEQ ID NO: 1] | potent IFN-gamma production | potent IFN-gamma production |  | potent CTL activity | no significant specific CTL activity
9 | VELTpIAFIL [SEQ ID NO: 22] | potent IFN-gamma production | potent IFN-gamma production | Potent IFN-gamma productions |  | 
10 | VFRALLLVL [SEQ ID NO: 9] | potent IFN-gamma production | potent IFN-gamma production |  |  | 
11 | VFVFRALLL [SEQ ID NO: 8] | potent IFN-gamma production | potent IFN-gamma production | Potent IFN-gamma productions |  | 
